According to patent publication US20040151618A1, “Method of increasing the conductivity of water and uses therefor” (priority 2002, published 2004):

Experiments:
[1] = Electrical conductivity of tap water with varying concentrations of sodium benzoate; type: physicochemical; conditions: 10% sodium benzoate plus ingredient that improves adhesion
Method: Tests were conducted to measure the electrical conductivity of tap water with varying concentrations of sodium benzoate. In these tests the conductivity has been measured in micromho/cm. One micromho/cm (UMHO/CM) equals one microsiemens/cm (US/CM). In other words a micromho is the same as a microsiemen.
In preparing a 1% solution of applicants solution 37.84 grams of sodium benzoate were dissolved in one gallon of tap water which weighs 3,784 grams. […] The conductivity of the various samples of applicant's invention that were subjected to these tests had conductivities ranging from 635 to 34,500 UMHO/CM. […] For solutions of other strengths, proportional amounts of sodium benzoate were added to a gallon of water. This invention is concerned with concentrations of sodium benzoate in the range of about 0.1% and greater. The current test results have been limited to a maximum concentration of about 10%.

mold [2] = assay: Mold on cornstarch immersed in solution (Example 3); type: cell-based; conditions: cornstarch in water with 1% sodium benzoate, four weeks
mold [3] = assay: Mold on dry dog food sprayed with solution (Example 4); type: cell-based; conditions: dry dog food sprayed with water with 1% sodium benzoate, three months
mold [4] = assay: Mold and odor on treated wet lap pulp (Example 5); type: cell-based; conditions: wet lap pulp treated with water with 1% sodium benzoate, almost a year
Description: A like portion of wet lap pulp from the same batch as the above wet lap pulp was not treated (wet lap pulp is moist and contains tap water) but was isolated for observation and comparison.

mold [5] = assay: Mold in opened cranberry-raspberry drink (Example 6); type: cell-based; conditions: drink with about 1.9% sodium benzoate, three weeks
Method: A commercially available 16 ounce bottle of cranberry-raspberry drink was opened and one ounce of water having a 30% concentrations of sodium benzoate was added to the contents of the bottle. The resulting cranberry-raspberry drink thus had about a 1.9% concentration of sodium benzoate. A second bottle of the same commercially available drink was opened but not treated in any way.

[6] = tested on: growing plant having green leaves and small white flowers; assay: Plant growth retarder: isolated growing plant sprayed (Example 7); type: in vivo; conditions: sprayed with water with 10% sodium benzoate, after six hours
Description: A growing plant having green leaves and small white flowers was isolated from other plants of the same type. the isolated plant was sprayed with water having a 10% concentration of sodium benzoate. The other plants were not treated.

[7] = tested on: potted plants each having green leaves and violet colored flowers; assay: Plant growth retarder: potted plant watered (Example 8); type: in vivo; conditions: watered with water with 10% sodium benzoate, after three days
Description: Two similar potted plants each having green leaves and violet colored flowers were obtained for this example. One of the potted plants was watered with tap water and at the same time the other potted plant was watered with water that contained a 10% concentration of sodium benzoate.

grass = assay: Plant growth retarder: patch of grass sprayed (Example 9); type: in vivo; conditions: sprayed with water with 10% by weight sodium benzoate, 24 hours
Description: A patch of grass about two feet in diameter was sprayed with water having a 10% concentration by weight of sodium benzoate . At the time that the water having the 10% concentration of sodium benzoate was sprayed on this patch of grass the sprayed patch as well as the surrounding grass areas were green and healthy looking.

[8] = tested on: large potted plants having green leaves and red flowers; assay: Plant growth retarder: large potted plants watered (Example 10); type: in vivo; conditions: watered with water with 10% by weight sodium benzoate
Description: Three large potted plants having green leaves and red flowers, each plant was about 3 feet tall, were utilized for this EXAMPLE. The three plants were aligned adjacent to each other in a sunny area. The large potted plant to the left was watered with tap water and the plants in the center and to the right were watered with water having a 10% concentration by weight of sodium benzoate. Two days after watering these three large potted plants, the plant to the left retained its green leaves and red flowers. However, the large plant in the center and the one to the right had undergone change. […] Four days after watering the plants the large plant in the center and the one to the right had undergone further change. […] The plant to the left retained its green leaves and red flowers.

[9] = tested on: psychrotrophic microorganisms; assay: Count of psychrotrophic microorganisms in minced cod fish fillets stored at 1-2° C. (Plate Count Agar, pour-plate); type: cell-based; design: Count of psychrotrophic microorganisms in sample with 0.1% Sodium Benzoate solution: unit not given here; conditions: for Count of psychrotrophic microorganisms in sample with 1% Sodium Benzoate solution: Example 11; for Count of psychrotrophic microorganisms in sample with 0.1% Sodium Benzoate solution: Example 12
Method: Cod fish fillets which were frozen at sea were thawed and minced. The minced fillets were divided into two 200 gram portions. To one portion, 20 milliliters of sterile, deionized water was added (10%) and to the other 20 milliliters of the sodium benzoate solution of this invention containing 1% benzoate was added. Both portions were stirred and then placed at 1-2° C. for storage. Samples were taken 2 hours, 7 days and 14 days after mixing. Counts of psychrothrophic microorganisms was done on Plate Count Agar with 0.5% NaCl added by the pour-plate technique. Plated were incubated at 22° C. for 3 days prior to counting colonies. When a nutrient agar-type medium is incubated, using the streak-plate or pour-plate method, cells are individually separated. In incubation, individual cells reproduce rapidly to generate a visible colony of cells, each colony being a pure sample of a single kind of microorganism.
In the above example, a 1% sodium benzoate solution was used, which is considered to be a stronger than acceptable for a food product, and thus a further tests were performed. In these second tests cod fish fillets which were frozen at sea were thawed and minced. The minced fillets were divided into two 200 gram portions. To one portion, 2 milliliters of sterile, deionized water was added and to the other […] of the sodium benzoate solution of this invention containing 0.1% benzoate was added. As a result in this test the other portion contained only 10% of the amount of benzoate as was in EXAMPLE 11. In other words EXAMPLE 11 was a 1% sodium benzoate solution and EXAMPLE 12 is a 0.1% sodium benzoate solution. Both portions were stirred and then placed at 1-2° C. for storage. Samples were taken 2 hours, 7 days, 14 days and 18 after mixing. Counts of psychrothrophic microorganisms was done on Plate Count Agar with 0.5% NaCI added by the pour-plate technique. Plated were incubated at 22° C. for 3 days prior to counting colonies.

[10] = Iron count of applicant after daily drinking of the solution; type: in vivo, human; conditions: daily drinking of 0.1% solution blended in fruit juice
Description: Furthermore, as a result of the higher conductivity of the sodium benzoate solution its electrical resistance is reduced which stabilizes organic colors and prevents their reversion. […] Also, in the pulp and paper industry the brightness of pulp is enhanced which is a result of applicant's solution impeding the deposition of iron. Also, impeding the iron content in drinking water can help to prevent an iron overload problem in humans and animals. Iron overload can result in cellular degradation that is similar to the rusting of a nail. Applicant's sodium benzoate solution can be used to prevent oxygen free radical degradation in humans and animals. Excess iron in human is very dangerous. Human consumption of applicant's solution could prevent hemochromatosis and the need for phlebotomy.

[11] = 0 days at 1-2° Centigrade (sample 2 hours after mixing)

With `O=C([O-])c1ccccc1.[Na+]` [Sodium Benzoate, sodium benzoate] the “Conductivity of 10% solution with coating additive compared with 10% solution without” value [1] was “substantially the same”, the “No Mold” value (mold [2]) was “no evidence of mold” and the “No Mold” value (mold [3]) was “no evidence of mold”. The “No Mold” value (mold [4]) was “no evidence of mold or odor”, the “No Mold” value (mold [5]) was “no evidence of mold” and the “Growth Stunned” value [6] was “shriveled and dried up”. For the same molecule, the “Growth Stunned” value [7] was “weathered and dried up”, the “Growth Stunned” value (grass) was “appeared straw like and there was no longer any green appearing” and the “Growth Stunned” value ([8]; four days after watering) was “remains of the flowers were now brown and only a few brown leaves remained on the branches”. For the same molecule, the Appearance of plants ([8]; two days after watering) was “flowers were no longer red and instead appeared pink and white and the leaves were drooping and were a much lighter shade of green”, the “Shelf life of fresh seafood maintained at 1-2° C.” value ([9]; 0.1% sodium benzoate solution) was “at least 14 days” and the “Shelf life of fresh seafood maintained at 1-2° C.” value ([9]; 1% sodium benzoate solution) was “at least 14 days”. For the same molecule, the “Count of psychrotrophic microorganisms in sample with 1% Sodium Benzoate solution” value (shortened to “Count … with 1% Sodium Benzoate solution”) [9, 11] was 5, the “Count … with 1% Sodium Benzoate solution” value ([9]; 7 days at 1-2° Centigrade) was 4.8 and the “Count … with 1% Sodium Benzoate solution” value ([9]; 14 days at 1-2° Centigrade) was 5.2. For the same molecule, the “Count of psychrotrophic microorganisms in sample with 0.1% Sodium Benzoate solution” value (“Count … with 0.1% Sodium Benzoate solution” below) [9, 11] was 4.21, the “Count … with 0.1% Sodium Benzoate solution” value ([9]; 7 days at 1-2° Centigrade) was 4.79 and the “Count … with 0.1% Sodium Benzoate solution” value ([9]; 14 days at 1-2° Centigrade) was 6.17. For the same molecule, the “Count … with 0.1% Sodium Benzoate solution” value ([9]; 18 days at 1-2° Centigrade) was 8.09 and the Iron count [10] was “reduced to normal levels”.
